pIC50: −log10 of the molar value.

In the experiment the target is T1, H^+/K^+-ATPase (Sus scrofa, UniProt P19156).
T1 construct: The obtained microsome fraction was used as the H^+/K^+-ATPase standard product; from tissue; host or cells: pig stomach (corpus ventriculi) mucous membrane microsome fraction
T1 sequence (P19156 2-1034 limits assumed): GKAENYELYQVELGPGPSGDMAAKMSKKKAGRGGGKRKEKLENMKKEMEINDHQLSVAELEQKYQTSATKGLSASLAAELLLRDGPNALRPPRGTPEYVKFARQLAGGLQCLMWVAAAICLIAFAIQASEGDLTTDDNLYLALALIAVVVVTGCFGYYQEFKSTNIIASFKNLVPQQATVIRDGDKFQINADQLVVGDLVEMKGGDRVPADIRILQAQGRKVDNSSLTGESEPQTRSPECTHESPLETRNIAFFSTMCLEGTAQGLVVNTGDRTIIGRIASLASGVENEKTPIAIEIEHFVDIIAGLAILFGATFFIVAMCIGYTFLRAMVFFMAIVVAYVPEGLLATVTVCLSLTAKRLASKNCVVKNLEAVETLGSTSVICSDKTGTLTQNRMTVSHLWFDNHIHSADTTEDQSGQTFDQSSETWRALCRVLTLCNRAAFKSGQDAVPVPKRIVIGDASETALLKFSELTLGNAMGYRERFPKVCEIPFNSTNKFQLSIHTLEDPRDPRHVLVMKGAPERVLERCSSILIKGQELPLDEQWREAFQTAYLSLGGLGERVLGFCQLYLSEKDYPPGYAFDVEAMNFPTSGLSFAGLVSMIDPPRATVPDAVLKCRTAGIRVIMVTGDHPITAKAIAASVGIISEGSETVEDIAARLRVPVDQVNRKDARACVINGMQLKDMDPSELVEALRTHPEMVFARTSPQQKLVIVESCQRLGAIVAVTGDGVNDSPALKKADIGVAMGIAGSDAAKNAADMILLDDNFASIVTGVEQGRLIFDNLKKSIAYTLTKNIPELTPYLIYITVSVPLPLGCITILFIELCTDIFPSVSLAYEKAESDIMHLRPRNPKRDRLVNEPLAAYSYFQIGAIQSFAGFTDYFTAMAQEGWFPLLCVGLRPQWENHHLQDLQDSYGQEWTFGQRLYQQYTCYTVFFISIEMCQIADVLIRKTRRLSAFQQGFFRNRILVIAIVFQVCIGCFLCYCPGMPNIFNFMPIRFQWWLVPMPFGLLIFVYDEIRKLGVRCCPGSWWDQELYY
T1 sequence (P18434 whole entry partner): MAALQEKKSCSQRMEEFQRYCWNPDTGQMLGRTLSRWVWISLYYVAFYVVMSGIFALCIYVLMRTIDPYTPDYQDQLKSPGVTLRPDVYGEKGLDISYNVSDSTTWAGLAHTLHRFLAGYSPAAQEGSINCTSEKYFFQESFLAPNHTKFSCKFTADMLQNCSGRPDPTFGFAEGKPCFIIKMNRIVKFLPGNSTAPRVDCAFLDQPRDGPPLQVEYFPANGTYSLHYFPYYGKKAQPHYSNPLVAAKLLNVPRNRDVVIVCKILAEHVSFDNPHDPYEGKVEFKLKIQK
In words: Proton, potassium-adenosine triphosphatase (H+/K+-ATPase) inhibitory activity test. The experiment is classed as biochemical. The conditions noted are these: pig stomach mucous membrane microsome fraction; pH 6.5, 37° C.; malachite green colorimetry at 610 nm; read-out: IC50 (50% inhibitory concentration of proton and potassium-adenosine triphosphatase). How it is done: Proton, Potassium-Adenosine Triphosphatase (H^+/K^+-ATPase) Inhibitory Activity Test
According to the method of Wallmark et al. [Biochem. Biophys. Acta., 728, 31 (1983)], a stomach mucous membrane microsome fraction was prepared from the stomach of a pig. First, the corpus ventriculi was isolated, washed with tap water, immersed in 3M brine, and the surface of the mucous membrane was wiped with a paper towel. The stomach mucous membrane was separated, chopped, and homogenized using polytron (Kinematica) in 0.25 M saccharose solution (pH 6.8) containing 1 mM EDTA and 10 mM tris hydrochloric acid. The obtained homogenate was centrifuged at 20,000×g for 30 min, and the supernatant was centrifuged at 100,000×g for 90 min. After suspending the precipitated part in a 0.25 M saccharose solution, layered on a 0.25 M saccharose solution containing 7.5% Ficoll, and centrifuged at 100,000×g for 5 hr. The fraction of the interface between the both layers was collected and washed by centrifugation with a 0.25 M saccharose solution.
The obtained microsome fraction was used as the H^+/K^+-ATPase standard product.
A test compound (5 μL) dissolved in a 10% aqueous dimethyl sulfoxide solution was added to 40 μL of a 50 mM Hepes-tris buffer (5 mM magnesium chloride, 10 mM potassium chloride, 10 μM valinomycin, pH=6.5) containing 2.5 μg/mL (based on the protein concentration) of an enzyme standard product, and the mixture was incubated at 37° C. for 30 min. The enzyme reaction was started by the addition of 5 μL of a 2 mM adenosine triphosphate tris salt solution (50 mM Hepes-tris buffer (5 mM magnesium chloride, pH 6.5)). The enzyme reaction was carried out at 37° C. for 20 min, and quenched by adding 15 μL of malachite green solution (a mixture of 0.12% malachite green sulfuric acid (5N) solution, 7.5% ammonium molybdate and 11% Tween 20 at a ratio of 100:25:2). The mixture was stood at room temperature for 15 min, and the resulting reaction product of inorganic phosphorus and malachite green was colorimetrically determined at a wavelength of 610 nm. The amount of inorganic phosphoric acid in a reaction solution free of potassium chloride was measured in the same manner. The H^+/K^+-ATPase activity was measured by subtracting the obtained amount from the amount of inorganic phosphoric acid in the presence of potassium chloride. The inhibitory rate (%) was determined from the control activity value and the activity value at each concentration of the test compound, and 50% inhibitory concentration (IC50) of proton and potassium-adenosine triphosphatase was determined.
On to `Cc1cc(F)ccc1CNc1nccc2c(CO)c(C)n(CC(C)C)c12` [Example 65, {7-[(4-fluoro-2-methylbenzyl)amino]-1-isobutyl-2-methyl-1H-pyrrolo[2,3-c]pyridin-3-yl}methanol], for which the pIC50 was 8.49. With `Cc1cc2ccnc(NCc3ccccc3)c2n1CC1CC1` [Example 5, N-benzyl-1-(cyclopropylmethyl)-2-methyl-1H-pyrrolo[2,3-c]pyridine-7-amine] the figure was 5.92. With `Cc1[nH]c2c(NCc3ccccc3)nccc2c1C` [Example 12, N-benzyl-2,3-dimethyl-1H-pyrrolo[2,3-c]pyridine-7-amine] the figure was 7.57; with `CCCn1c(C)c(C)c2ccnc(NCc3ccc(F)cc3C)c21` [Example 26, N-(4-fluoro-2-methylbenzyl)-2,3-dimethyl-1-propyl-1H-pyrrolo[2,3-c]pyridine-7-amine], 7.62; with `Cc1[nH]c2c(NC3CCc4ccccc43)nccc2c1C` (centres unmarked) [Example 16, N-(2,3-dihydro-1H-inden-1-yl)-2,3-dimethyl-1H-pyrrolo[2,3-c]pyridine-7-amine], 8.01. For `Cc1cccc(C)c1CNc1nccc2c(C)c(C)[nH]c12` [Example 14, N-(2,6-dimethylbenzyl)-2,3-dimethyl-1H-pyrrolo[2,3-c]pyridine-7-amine] the value was 7.85; for `Cc1[nH]c2c(NC(=O)c3ccccc3)nccc2c1C` [Example 74, N-[7-(2,3-dimethyl-1H-pyrrolo[2,3-c]pyridyl)]benzamide], 5.74. With `CCCn1c(C)cc2ccnc(NCc3ccccc3)c21` [Example 2, N-benzyl-2-methyl-1-propyl-1H-pyrrolo[2,3-c]pyridine-7-amine], the pIC50 is 6.01.

For the origin of these results see patent US20180148446A1, “PYRROLO [2,3-c] PYRIDINE COMPOUND, PROCESS FOR PRODUCING THE SAME, AND USE” (Takeda Pharmaceutical Company Limited, priority 2004, published 2018).
